From ChEMBL document CHEMBL1909294, “Translating clinical findings into knowledge in drug safety evaluation--drug induced liver injury prediction system (DILIps)” (PLoS Comput Biol, 2011)

How the values were obtained:
Hepatotoxicity [1] = test system: Hepatotoxicity;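 for HepSE bilirubinemia: bilirubinemia hepatic side effect score drawn from the DILIps training data, a prediction system for drug-induced liver injury; call rule not given here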;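 for HepSE cholecystitis: Cholecystitis-related hepatic side effect score drawn from the DILIps (drug-induced liver injury prediction) training data set; call rule not given here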;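 for HepSE cholelithiasis: hepatic side effect score for cholelithiasis, drawn from the DILIps training data for predicting drug-induced liver injury; call rule not given here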;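 for HepSE cirrhosis: cirrhosis hepatic side effect score taken from the DILIps (drug-induced liver injury prediction) training set; call rule not given here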;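 for HepSE elevated liver function tests: hepatic side effect score for raised liver function tests, as recorded in the DILIps training set used for predicting drug-induced liver injury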; for HepSE hepatic failure: call rule not given here;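 for HepSE hepatomegaly: hepatic side effect score for hepatomegaly, taken from the training set of the DILIps drug-induced liver injury prediction system; call rule not given here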
Hepatotoxicity [2] = test system: Hepatotoxicity; remark: listed apart in the source;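 for HepSE bilirubinemia: bilirubinemia hepatic side effect score drawn from the DILIps training data, a prediction system for drug-induced liver injury; call rule not given here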;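 for HepSE cholecystitis: Cholecystitis-related hepatic side effect score drawn from the DILIps (drug-induced liver injury prediction) training data set; call rule not given here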;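 for HepSE cholelithiasis: hepatic side effect score for cholelithiasis, drawn from the DILIps training data for predicting drug-induced liver injury; call rule not given here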;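 for HepSE cirrhosis: cirrhosis hepatic side effect score taken from the DILIps (drug-induced liver injury prediction) training set; call rule not given here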;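 for HepSE elevated liver function tests: hepatic side effect score for raised liver function tests, as recorded in the DILIps training set used for predicting drug-induced liver injury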; for HepSE hepatic failure: call rule not given here
Hepatotoxicity [3] = test system: Hepatotoxicity; remark: listed apart in the source;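 for HepSE bilirubinemia: bilirubinemia hepatic side effect score drawn from the DILIps training data, a prediction system for drug-induced liver injury; call rule not given here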;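 for HepSE cholecystitis: Cholecystitis-related hepatic side effect score drawn from the DILIps (drug-induced liver injury prediction) training data set; call rule not given here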;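 for HepSE cholelithiasis: hepatic side effect score for cholelithiasis, drawn from the DILIps training data for predicting drug-induced liver injury; call rule not given here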;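 for HepSE cirrhosis: cirrhosis hepatic side effect score taken from the DILIps (drug-induced liver injury prediction) training set; call rule not given here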;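 for HepSE elevated liver function tests: hepatic side effect score for raised liver function tests, as recorded in the DILIps training set used for predicting drug-induced liver injury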; for HepSE hepatic failure: call rule not given here
Hepatotoxicity [4] = test system: Hepatotoxicity; remark: listed apart in the source;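 for HepSE bilirubinemia: bilirubinemia hepatic side effect score drawn from the DILIps training data, a prediction system for drug-induced liver injury; call rule not given here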;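 for HepSE cholecystitis: Cholecystitis-related hepatic side effect score drawn from the DILIps (drug-induced liver injury prediction) training data set; call rule not given here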;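 for HepSE cholelithiasis: hepatic side effect score for cholelithiasis, drawn from the DILIps training data for predicting drug-induced liver injury; call rule not given here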;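 for HepSE cirrhosis: cirrhosis hepatic side effect score taken from the DILIps (drug-induced liver injury prediction) training set; call rule not given here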;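 for HepSE elevated liver function tests: hepatic side effect score for raised liver function tests, as recorded in the DILIps training set used for predicting drug-induced liver injury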; for HepSE hepatic failure: call rule not given here
Hepatotoxicity [5] = test system: Hepatotoxicity; remark: listed apart in the source; for HepSE hepatic failure: call rule not given here
Hepatotoxicity [6] = test system: Hepatotoxicity; remark: listed apart in the source; for HepSE hepatic failure: call rule not given here
Hepatotoxicity [7] = test system: Hepatotoxicity; remark: listed apart in the source
Hepatotoxicity [8] = test system: Hepatotoxicity; remark: listed apart in the source
Hepatotoxicity [9] = test system: Hepatotoxicity; remark: listed apart in the source
Hepatotoxicity [10] = test system: Hepatotoxicity; remark: listed apart in the source
Hepatotoxicity [11] = test system: Hepatotoxicity; remark: listed apart in the source
Hepatotoxicity [12] = test system: Hepatotoxicity; remark: listed apart in the source
Hepatotoxicity [13] = test system: Hepatotoxicity; remark: listed apart in the source
Hepatotoxicity [14] = test system: Hepatotoxicity; remark: listed apart in the source

## CC1(C)O[C@@H]2[C@@H](CO[C@@]3(COS(N)(=O)=O)OC(C)(C)O[C@@H]23)O1 [TOPIRAMATE]
Hepatotoxicity [1]
  HepSE_bilirubinemia: 0
Hepatotoxicity [2]
  HepSE_cholecystitis: 0
Hepatotoxicity [3]
  HepSE_cholelithiasis: 0
Hepatotoxicity [4]
  HepSE_cirrhosis: 0
Hepatotoxicity [5]
  HepSE_elevated liver function tests: 0
Hepatotoxicity [6]
  HepSE_hepatic failure: 1
Hepatotoxicity [7]
  HepSE_hepatic necrosis: 0
Hepatotoxicity [8]
  HepSE_hepatitis: 1
Hepatotoxicity [9]
  HepSE_hepatomegaly: 0
Hepatotoxicity [10]
  HepSE_jaundice: 0
Hepatotoxicity [11]
  HepSE_liver disease: 0
Hepatotoxicity [12]
  HepSE_liver fatty: 0
Hepatotoxicity [13]
  HepSE_liver function tests abnormal: 0
Hepatotoxicity [14]
  HepSE_Combined Scores: 2

## CCN1CCN(C(=O)N[C@@H](C(=O)N[C@@H]2C(=O)N3C(C(=O)O)=C(CSc4nnnn4C)CS[C@H]23)c2ccc(O)cc2)C(=O)C1=O [CEFOPERAZONE]
Hepatotoxicity [1]
  HepSE_bilirubinemia: 0
Hepatotoxicity [2]
  HepSE_cholecystitis: 0
Hepatotoxicity [3]
  HepSE_cholelithiasis: 0
Hepatotoxicity [4]
  HepSE_cirrhosis: 0
Hepatotoxicity [5]
  HepSE_elevated liver function tests: 0
Hepatotoxicity [6]
  HepSE_hepatic failure: 0
Hepatotoxicity [7]
  HepSE_hepatic necrosis: 0
Hepatotoxicity [8]
  HepSE_hepatitis: 1
Hepatotoxicity [9]
  HepSE_hepatomegaly: 0
Hepatotoxicity [10]
  HepSE_jaundice: 0
Hepatotoxicity [11]
  HepSE_liver disease: 1
Hepatotoxicity [12]
  HepSE_liver fatty: 0
Hepatotoxicity [13]
  HepSE_liver function tests abnormal: 0
Hepatotoxicity [14]
  HepSE_Combined Scores: 2

## O=C1CC[C@@]2(O)[C@H]3Cc4ccc(O)c5c4[C@@]2(CCN3CC2CC2)[C@H]1O5 [NALTREXONE]
Hepatotoxicity [1]
  HepSE_bilirubinemia: 0
Hepatotoxicity [2]
  HepSE_cholecystitis: 0
Hepatotoxicity [3]
  HepSE_cholelithiasis: 1
Hepatotoxicity [4]
  HepSE_cirrhosis: 0
Hepatotoxicity [5]
  HepSE_elevated liver function tests: 0
Hepatotoxicity [6]
  HepSE_hepatic failure: 0
Hepatotoxicity [7]
  HepSE_hepatic necrosis: 0
Hepatotoxicity [8]
  HepSE_hepatitis: 1
Hepatotoxicity [9]
  HepSE_hepatomegaly: 0
Hepatotoxicity [10]
  HepSE_jaundice: 0
Hepatotoxicity [11]
  HepSE_liver disease: 0
Hepatotoxicity [12]
  HepSE_liver fatty: 0
Hepatotoxicity [13]
  HepSE_liver function tests abnormal: 0
Hepatotoxicity [14]
  HepSE_Combined Scores: 2

## CCCCN1CCCCC1C(=O)Nc1c(C)cccc1C (configuration not stated) [BUPIVACAINE]
Hepatotoxicity [1]
  HepSE_bilirubinemia: 0
Hepatotoxicity [2]
  HepSE_cholecystitis: 0
Hepatotoxicity [3]
  HepSE_cholelithiasis: 0
Hepatotoxicity [4]
  HepSE_cirrhosis: 0
Hepatotoxicity [5]
  HepSE_elevated liver function tests: 0
Hepatotoxicity [6]
  HepSE_hepatic failure: 0
Hepatotoxicity [7]
  HepSE_hepatic necrosis: 0
Hepatotoxicity [8]
  HepSE_hepatitis: 0
Hepatotoxicity [9]
  HepSE_hepatomegaly: 0
Hepatotoxicity [10]
  HepSE_jaundice: 0
Hepatotoxicity [11]
  HepSE_liver disease: 1
Hepatotoxicity [12]
  HepSE_liver fatty: 0
Hepatotoxicity [13]
  HepSE_liver function tests abnormal: 0
Hepatotoxicity [14]
  HepSE_Combined Scores: 1

## CC(C)(C)NC[C@H](O)COc1nsnc1N1CCOCC1 [TIMOLOL]
Hepatotoxicity [1]
  HepSE_bilirubinemia: 0
Hepatotoxicity [2]
  HepSE_cholecystitis: 0
Hepatotoxicity [3]
  HepSE_cholelithiasis: 0
Hepatotoxicity [4]
  HepSE_cirrhosis: 0
Hepatotoxicity [5]
  HepSE_elevated liver function tests: 0
Hepatotoxicity [6]
  HepSE_hepatic failure: 0
Hepatotoxicity [7]
  HepSE_hepatic necrosis: 0
Hepatotoxicity [8]
  HepSE_hepatitis: 0
Hepatotoxicity [9]
  HepSE_hepatomegaly: 1
Hepatotoxicity [10]
  HepSE_jaundice: 0
Hepatotoxicity [11]
  HepSE_liver disease: 0
Hepatotoxicity [12]
  HepSE_liver fatty: 0
Hepatotoxicity [13]
  HepSE_liver function tests abnormal: 0
Hepatotoxicity [14]
  HepSE_Combined Scores: 1

## CC(COc1ccccc1)N(CCCl)Cc1ccccc1 (configuration not stated) [PHENOXYBENZAMINE]
Hepatotoxicity [1]
  HepSE_bilirubinemia: 0
Hepatotoxicity [2]
  HepSE_cholecystitis: 0
Hepatotoxicity [3]
  HepSE_cholelithiasis: 0
Hepatotoxicity [4]
  HepSE_cirrhosis: 0
Hepatotoxicity [5]
  HepSE_elevated liver function tests: 0
Hepatotoxicity [6]
  HepSE_hepatic failure: 0
Hepatotoxicity [7]
  HepSE_hepatic necrosis: 0
Hepatotoxicity [8]
  HepSE_hepatitis: 0
Hepatotoxicity [9]
  HepSE_hepatomegaly: 0
Hepatotoxicity [10]
  HepSE_jaundice: 0
Hepatotoxicity [11]
  HepSE_liver disease: 0
Hepatotoxicity [12]
  HepSE_liver fatty: 0
Hepatotoxicity [13]
  HepSE_liver function tests abnormal: 0
Hepatotoxicity [14]
  HepSE_Combined Scores: 0

## CC(C)CN(C[C@@H](O)[C@H](Cc1ccccc1)NC(=O)O[C@H]1CO[C@H]2OCC[C@H]21)S(=O)(=O)c1ccc(N)cc1
Hepatotoxicity [1]
  HepSE_bilirubinemia: 1
Hepatotoxicity [2]
  HepSE_cholecystitis: 0
Hepatotoxicity [3]
  HepSE_cholelithiasis: 0
Hepatotoxicity [4]
  HepSE_cirrhosis: 1
Hepatotoxicity [5]
  HepSE_elevated liver function tests: 0
Hepatotoxicity [6]
  HepSE_hepatic failure: 1
Hepatotoxicity [7]
  HepSE_hepatic necrosis: 0
Hepatotoxicity [8]
  HepSE_hepatitis: 1
Hepatotoxicity [9]
  HepSE_hepatomegaly: 0
Hepatotoxicity [10]
  HepSE_jaundice: 1
Hepatotoxicity [11]
  HepSE_liver disease: 0
Hepatotoxicity [12]
  HepSE_liver fatty: 0
Hepatotoxicity [13]
  HepSE_liver function tests abnormal: 0
Hepatotoxicity [14]
  HepSE_Combined Scores: 5

## CCOC(=O)CC(SP(=S)(OC)OC)C(=O)OCC (configuration not stated) [MALATHION]
Hepatotoxicity [1]
  HepSE_bilirubinemia: 0
Hepatotoxicity [2]
  HepSE_cholecystitis: 0
Hepatotoxicity [3]
  HepSE_cholelithiasis: 0
Hepatotoxicity [4]
  HepSE_cirrhosis: 0
Hepatotoxicity [5]
  HepSE_elevated liver function tests: 0
Hepatotoxicity [6]
  HepSE_hepatic failure: 0
Hepatotoxicity [7]
  HepSE_hepatic necrosis: 0
Hepatotoxicity [8]
  HepSE_hepatitis: 0
Hepatotoxicity [9]
  HepSE_hepatomegaly: 0
Hepatotoxicity [10]
  HepSE_jaundice: 0
Hepatotoxicity [11]
  HepSE_liver disease: 0
Hepatotoxicity [12]
  HepSE_liver fatty: 0
Hepatotoxicity [13]
  HepSE_liver function tests abnormal: 0
Hepatotoxicity [14]
  HepSE_Combined Scores: 0

## CC(=O)N(CC(O)CO)c1c(I)c(C(=O)NCC(O)CO)c(I)c(C(=O)NCC(O)CO)c1I (configuration not stated) [IOHEXOL]
Hepatotoxicity [1]
  HepSE_bilirubinemia: 0
Hepatotoxicity [2]
  HepSE_cholecystitis: 0
Hepatotoxicity [3]
  HepSE_cholelithiasis: 0
Hepatotoxicity [4]
  HepSE_cirrhosis: 0
Hepatotoxicity [5]
  HepSE_elevated liver function tests: 0
Hepatotoxicity [6]
  HepSE_hepatic failure: 0
Hepatotoxicity [7]
  HepSE_hepatic necrosis: 0
Hepatotoxicity [8]
  HepSE_hepatitis: 0
Hepatotoxicity [9]
  HepSE_hepatomegaly: 0
Hepatotoxicity [10]
  HepSE_jaundice: 0
Hepatotoxicity [11]
  HepSE_liver disease: 0
Hepatotoxicity [12]
  HepSE_liver fatty: 0
Hepatotoxicity [13]
  HepSE_liver function tests abnormal: 0
Hepatotoxicity [14]
  HepSE_Combined Scores: 0

## NC(CO)(CO)CO [TROMETHAMINE]
Hepatotoxicity [1]; Liver
  HepSE_bilirubinemia: 0
Hepatotoxicity [2]; Liver
  HepSE_cholecystitis: 0
Hepatotoxicity [3]; Liver
  HepSE_cholelithiasis: 0
Hepatotoxicity [4]; Liver
  HepSE_cirrhosis: 0
Hepatotoxicity [5]; Liver
  HepSE_elevated liver function tests: 0
Hepatotoxicity [6]; Liver
  HepSE_hepatic failure: 0
Hepatotoxicity [7]; Liver
  HepSE_hepatic necrosis: 0
Hepatotoxicity [8]; Liver
  HepSE_hepatitis: 0
Hepatotoxicity [9]; Liver
  HepSE_hepatomegaly: 0
Hepatotoxicity [10]; Liver
  HepSE_jaundice: 0
Hepatotoxicity [11]; Liver
  HepSE_liver disease: 0
Hepatotoxicity [12]; Liver
  HepSE_liver fatty: 0
Hepatotoxicity [13]; Liver
  HepSE_liver function tests abnormal: 0
Hepatotoxicity [14]; Liver
  HepSE_Combined Scores: 0

## C[C@]12CC[C@@H]3c4ccc(O)cc4C[C@@H](CCCCCCCCC[S+]([O-])CCCC(F)(F)C(F)(F)F)[C@H]3[C@@H]1CC[C@@H]2O (some centres not stated) [FULVESTRANT]
Hepatotoxicity [1]
  HepSE_bilirubinemia: 0
Hepatotoxicity [2]
  HepSE_cholecystitis: 0
Hepatotoxicity [3]
  HepSE_cholelithiasis: 0
Hepatotoxicity [4]
  HepSE_cirrhosis: 0
Hepatotoxicity [5]
  HepSE_elevated liver function tests: 0
Hepatotoxicity [6]
  HepSE_hepatic failure: 0
Hepatotoxicity [7]
  HepSE_hepatic necrosis: 0
Hepatotoxicity [8]
  HepSE_hepatitis: 0
Hepatotoxicity [9]
  HepSE_hepatomegaly: 0
Hepatotoxicity [10]
  HepSE_jaundice: 0
Hepatotoxicity [11]
  HepSE_liver disease: 0
Hepatotoxicity [12]
  HepSE_liver fatty: 0
Hepatotoxicity [13]
  HepSE_liver function tests abnormal: 0
Hepatotoxicity [14]
  HepSE_Combined Scores: 0

## O=C(O)c1cc(=O)c2c(OCC(O)COc3cccc4oc(C(=O)O)cc(=O)c34)cccc2o1 [CROMOLYN]
Hepatotoxicity [1]
  HepSE_bilirubinemia: 0
Hepatotoxicity [2]
  HepSE_cholecystitis: 0
Hepatotoxicity [3]
  HepSE_cholelithiasis: 0
Hepatotoxicity [4]
  HepSE_cirrhosis: 0
Hepatotoxicity [5]
  HepSE_elevated liver function tests: 0
Hepatotoxicity [6]
  HepSE_hepatic failure: 0
Hepatotoxicity [7]
  HepSE_hepatic necrosis: 0
Hepatotoxicity [8]
  HepSE_hepatitis: 0
Hepatotoxicity [9]
  HepSE_hepatomegaly: 0
Hepatotoxicity [10]
  HepSE_jaundice: 0
Hepatotoxicity [11]
  HepSE_liver disease: 1
Hepatotoxicity [12]
  HepSE_liver fatty: 0
Hepatotoxicity [13]
  HepSE_liver function tests abnormal: 0
Hepatotoxicity [14]
  HepSE_Combined Scores: 1

## O=C1CCC(N2C(=O)c3ccccc3C2=O)C(=O)N1 (configuration not stated) [THALIDOMIDE]
Hepatotoxicity [1]
  HepSE_bilirubinemia: 1
Hepatotoxicity [2]
  HepSE_cholecystitis: 0
Hepatotoxicity [3]
  HepSE_cholelithiasis: 0
Hepatotoxicity [4]
  HepSE_cirrhosis: 0
Hepatotoxicity [5]
  HepSE_elevated liver function tests: 0
Hepatotoxicity [6]
  HepSE_hepatic failure: 0
Hepatotoxicity [7]
  HepSE_hepatic necrosis: 0
Hepatotoxicity [8]
  HepSE_hepatitis: 1
Hepatotoxicity [9]
  HepSE_hepatomegaly: 1
Hepatotoxicity [10]
  HepSE_jaundice: 1
Hepatotoxicity [11]
  HepSE_liver disease: 0
Hepatotoxicity [12]
  HepSE_liver fatty: 0
Hepatotoxicity [13]
  HepSE_liver function tests abnormal: 0
Hepatotoxicity [14]
  HepSE_Combined Scores: 4
